Measurements from US4507320A.
Where two headings read alike, the source gives them in different places.

Experiments:
[1] = target: T1, presynaptic dopaminergic (DA2) receptor (Oryctolagus cuniculus, UniProt G1T1Q0)
Protocol: (§1) The procedure measures the ability of the test compound to inhibit the constrictor response of isolated perfused rabbit ear artery caused by field stimulation of its adrenergic nerve terminals. Activity in this test is, then, compared with undesired alpha1 -agonist activity which is determined in the superfused rabbit ear artery segment.

alpha2 = assay: alpha2-agonist activity in isolated guinea pig atrial tissue
alpha1 = assay: alpha1-agonist activity in superfused rabbit ear artery segment; conditions: read-out: EC50-α1, acid addition salt form
Protocol: as §1

[2] = target: T1, presynaptic dopaminergic (DA2) receptor; assay: stimulation-evoked 3H-norepinephrine release from prelabelled rabbit ear artery (DA2)
[3] = tested on: presynaptic dopaminergic (DA2) receptor; conditions: for vasoconstriction observed during the tests (alpha1-mediated): rabbit ear artery, Compound B at 300 nM in the effector response test
Protocol: as §1

[4] = tested on: adenylate cyclase in the caudate nucleus; conditions: compared with dopamine; cited from earlier work

T1 sequence (G1T1Q0 1-443): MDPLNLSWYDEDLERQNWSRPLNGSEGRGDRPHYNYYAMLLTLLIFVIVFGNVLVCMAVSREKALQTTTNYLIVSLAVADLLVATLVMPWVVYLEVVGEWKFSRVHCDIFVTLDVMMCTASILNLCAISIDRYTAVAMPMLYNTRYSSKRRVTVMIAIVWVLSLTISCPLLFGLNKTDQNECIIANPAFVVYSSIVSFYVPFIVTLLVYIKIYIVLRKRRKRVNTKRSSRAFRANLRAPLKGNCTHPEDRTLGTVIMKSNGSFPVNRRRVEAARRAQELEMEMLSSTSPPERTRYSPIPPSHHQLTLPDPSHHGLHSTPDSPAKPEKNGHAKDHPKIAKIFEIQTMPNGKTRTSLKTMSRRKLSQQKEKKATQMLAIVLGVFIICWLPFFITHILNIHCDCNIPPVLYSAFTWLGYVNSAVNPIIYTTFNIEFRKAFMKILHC

| Compound | EC50 [1] [nM] | alpha2-agonist activity (alpha2) | EC50 (alpha1) [nM] | EC50 [2] [nM] | vasoconstriction observed during the tests (alpha1-mediated) [3] | agonist activity for adenylate cyclase [4] | selectivity for peripheral DA2 receptor sites over alpha1 ([3]; from DA2 EC50 vs alpha1 EC50) |
| --- | --- | --- | --- | --- | --- | --- | --- |
| CCCN(CCC)CCc1cccc(NS(C)(=O)=O)c1 [F] | 400 |  |  |  |  |  |  |
| CNCCc1ccc(O)c(NS(C)(=O)=O)c1 [Compound C] | > 30 | significant α2 -activity | 25 | 300 | demonstrates vasoconstriction as a result of alpha1 -agonist activity |  |  |
| CC(C)NCCc1ccc(O)c(NS(C)(=O)=O)c1 [D] | > 1000 |  | 2000 |  |  |  |  |
| CCCN(CCC)CCc1ccc(O)c(NS(=O)(=O)C(F)(F)F)c1 [E] | > 1000 |  |  |  |  |  |  |
| CS(=O)(=O)Nc1cc(CCN)ccc1O [3-methylsulfonamido analogue of dopamine] |  |  |  |  |  | weaker than was dopamine itself |  |
| CS(=O)(=O)Nc1cc(CCN)ccc1O [Compound B] | > 300 | significant α2 -activity | 355 | 3000 | vasoconstriction was observed |  |  |
| CS(=O)(=O)Nc1cccc(CCN)c1 [G] | > 1000 |  |  |  |  |  |  |
| CCCN(CCC)CCc1ccc(O)c(NS(C)(=O)=O)c1 [Compound A] | 2 | no alpha2 -agonist activity | 760 | 10 | No alpha1 -mediated vasoconstriction was observed |  | high selectivity for the desired peripheral DA2 receptor sites |
